From ChEMBL document CHEMBL4359821, “Identify liver X receptor β modulator building blocks by developing a fluorescence polarization-based competition assay” (Eur J Med Chem, 2019)

Assays:
[1] = molecular target: T1, Oxysterols receptor LXR-beta (Homo sapiens, UniProt P55055); test: Binding affinity to recombinant human LXRbeta-LBD expressed in Escherichia coli BL21 (DE3) assessed as inhibitory constant incubated for 30 mins by fluorescence polarization binding assay
[2] = molecular target: T1, Oxysterols receptor LXR-beta; test: Binding affinity to recombinant human LXRbeta-LBD expressed in Escherichia coli BL21 (DE3) assessed as dissociation constant incubated for 30 mins by fluorescence polarization binding assay
[3] = molecular target: T1, Oxysterols receptor LXR-beta; test: Agonist activity at recombinant human LXRbeta-LBD expressed in Escherichia coli BL21 (DE3) assessed as peptide D22 recruitment fluorescence polarization binding assay

T1 sequence (P55055 whole entry, the tested form may be a part): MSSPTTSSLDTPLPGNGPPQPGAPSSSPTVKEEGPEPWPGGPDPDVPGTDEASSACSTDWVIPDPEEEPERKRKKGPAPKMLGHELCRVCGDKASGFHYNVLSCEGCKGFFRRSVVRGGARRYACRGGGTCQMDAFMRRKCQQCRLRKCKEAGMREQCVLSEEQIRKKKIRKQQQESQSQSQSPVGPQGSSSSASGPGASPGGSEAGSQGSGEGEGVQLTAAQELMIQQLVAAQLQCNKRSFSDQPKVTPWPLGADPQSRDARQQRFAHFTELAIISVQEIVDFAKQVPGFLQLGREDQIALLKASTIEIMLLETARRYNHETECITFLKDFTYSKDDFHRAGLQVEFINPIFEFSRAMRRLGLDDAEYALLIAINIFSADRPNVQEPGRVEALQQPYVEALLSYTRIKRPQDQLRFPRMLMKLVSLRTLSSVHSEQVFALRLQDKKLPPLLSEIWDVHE

| Ki [1] [µM] | Kd [2] [µM] | EC50 [3] [µM] | SMILES |
| --- | --- | --- | --- |
| 66 |  |  | CCCCOC(=O)c1ccc(O)cc1 [BUTYLPARABEN] |
| 68 |  |  | Oc1ccc(Sc2ccc(O)cc2)cc1 |
| 153 |  |  | CC(=O)c1c(C)ccc2ccccc12 |
| 140 |  | 19 | CCOC(=O)c1cn2nc[nH]c(=O)c2c1C(C)C |
| 0.0142 |  |  | Fc1ccc(-c2c3cccc(C(F)(F)F)c3nn2Cc2ccc(F)cc2Cl)cc1 [LXR-623] |
| 0.0022 |  | 0.289 | O=C(O)Cc1cccc(OCCCN(Cc2cccc(C(F)(F)F)c2Cl)CC(c2ccccc2)c2ccccc2)c1 |
| 209 |  |  | Brc1nn(C2CCCCO2)c2ncccc12 (stereo unspecified) |
| 0.352 |  |  | CCOC(=O)c1ccc(CN(Cc2ccc(-c3cccc(S(C)(=O)=O)c3)cc2)S(=O)(=O)c2c(C)cc(C)cc2C)o1 |

Second part, the compound before the results:

| SMILES | Ki [1] [µM] | Kd [2] [µM] | EC50 [3] [µM] |
| --- | --- | --- | --- |
| COC(=O)c1ccc2cc[nH]c2c1 | 302 |  |  |
| CC(C)[C@@H]1CN(c2ccc(CO)c(S(C)(=O)=O)c2)CCN1c1ncc(COC(=O)CCCCCNC(=S)Nc2ccc3c(c2)C(=O)OC32c3ccc(O)cc3Oc3cc(O)ccc32)c(C(F)(F)F)n1 |  | 0.0489 |  |
| Oc1ccc(Cl)cc1 [PARACHLOROPHENOL] | 169 |  | 514 |
| COc1ccc(OC)c(Cl)c1 | 476 |  | 1030 |
| O=C1Nc2ccc(Br)cc2CO1 | > 500 |  |  |
| CC(C)(C)OC(=O)N1Cc2cn[nH]c2C1 | 225 |  |  |
| N#CC[C@H](C1CCCC1)n1cc(-c2ncnc3[nH]ccc23)cn1 [RUXOLITINIB] | 45 |  |  |
| Oc1cccc(Cl)c1 | 184 |  | 519 |
